PMC8286840, “Identifying SARS-CoV-2 antiviral compounds by screening for small molecule inhibitors of Nsp3 papain-like protease” (Biochemical Journal, 2021)
Structures can show the parent of a compound that is named as a salt. Where two headings read alike, the source gives them in different places.

Assays:
[1] = biological target: T1, SARS-CoV-2 PLpro (nsp3 1564–1878) (Severe acute respiratory syndrome coronavirus 2, UniProt P0DTD1); test: biochemical; set-up: FRET-quenched peptide (Pro3) cleavage by PLpro, 10 min pre-incubation, slope over 20 min, normalised to no-compound control; settings: read-out: % of control remaining
[2] = biological target: T1, SARS-CoV-2 PLpro (nsp3 1564–1878); test: biochemical; set-up: FRET-quenched peptide (Pro3) cleavage by PLpro, 10 min pre-incubation, slope over 20 min, normalised to no-compound control; settings: read-out: % of control remaining; remark: listed apart in the source

## CC[C@H]1OC(=O)[C@@](C)(F)C(=O)[C@H](C)[C@@H](O[C@@H]2O[C@H](C)C[C@H](N(C)C)[C@H]2O)[C@](C)(OC)C[C@@H](C)C(=O)[C@H](C)[C@H]2N(CCCCn3cc(-c4cccc(N)c4)nn3)C(=O)O[C@]12C [Solithromycin]
[1]; Well no.=7990, low concentration screen
  remaining activity at 1.25 µM: 97.5%
[2]; Well no.=7990, high concentration screen
  remaining activity at 3.75 µM: 95.7%

## OCc1ccc(-c2nn(Cc3ccccc3)c3ccccc23)o1 [Lificiguat]
[1]; Well no.=7713, low concentration screen
  remaining activity at 1.25 µM: 99%
[2]; Well no.=7713, high concentration screen
  remaining activity at 3.75 µM: 82.8%

## c1ccc2sc(C3(N4CCCCC4)CCCCC3)cc2c1 [BTCP hydrochloride]
[1]; Well no.=325, low concentration screen
  remaining activity at 1.25 µM: 101%
[2]; Well no.=325, high concentration screen
  remaining activity at 3.75 µM: 96.6%

## CCN1/C(=C/C(C)=O)Sc2ccc(OC)cc21 [Cdc2-Like Kinase Inhibitor, TG003]
[1]; Well no.=2410, low concentration screen
  remaining activity at 1.25 µM: 106%
[2]; Well no.=2410, high concentration screen
  remaining activity at 3.75 µM: 109%

## CO[C@H]1/C=C/O[C@@]2(C)Oc3c(C)c(O)c4c(O)c(c(/C=N/N5CCN(C)CC5)c(O)c4c3C2=O)NC(=O)/C(C)=C\C=C\[C@H](C)[C@H](O)[C@@H](C)[C@@H](O)[C@@H](C)[C@H](OC(C)=O)[C@@H]1C [Rifampicin]
[1]; Well no.=1668, low concentration screen
  remaining activity at 1.25 µM: 103%
[1]; Well no.=3138, low concentration screen
  remaining activity at 1.25 µM: 101%
[2]; Well no.=1668, high concentration screen
  remaining activity at 3.75 µM: 102%
[2]; Well no.=3138, high concentration screen
  remaining activity at 3.75 µM: 97.7%

## Cc1[nH]c2ccccc2c1CCNC(=O)c1ccccc1F [CK-666]
[1]; Well no.=5720, low concentration screen
  remaining activity at 1.25 µM: 95.1%
[2]; Well no.=5720, high concentration screen
  remaining activity at 3.75 µM: 95.4%

## CNc1cccc(NC(=O)N[C@@H]2N=C(c3ccccn3)c3ccccc3N(CC(=O)C(C)(C)C)C2=O)c1 [Sograzepide]
[1]; Well no.=8322, low concentration screen
  remaining activity at 1.25 µM: 94.5%
[2]; Well no.=8322, high concentration screen
  remaining activity at 3.75 µM: 93%

## COc1ccc(C2(C#N)CCC(C(=O)O)CC2)cc1OC1CCCC1 (stereo not shown) [4-cyano-4-[3-(cyclopentyloxy)-4-methoxyphenyl]cyclohexanecarboxylic acid]
[1]; Well no.=5837, low concentration screen
  remaining activity at 1.25 µM: 101%
[2]; Well no.=5837, high concentration screen
  remaining activity at 3.75 µM: 99.9%

## CN1CCN(C2=Nc3cc(F)ccc3Cc3ccccc32)CC1 [Fluperlapine]
[1]; Well no.=2100, low concentration screen
  remaining activity at 1.25 µM: 101%
[2]; Well no.=2100, high concentration screen
  remaining activity at 3.75 µM: 98.8%

## O=C(O)c1cc(O)cc(O)c1 [3,5-Dihydroxybenzoic acid]
[1]; Well no.=6829, low concentration screen
  remaining activity at 1.25 µM: 101%
[2]; Well no.=6829, high concentration screen
  remaining activity at 3.75 µM: 117%

## CCCCCCCCCCCCCCCCCCCCCC(=O)O [Docosanoic acid]
[1]; Well no.=4456, low concentration screen
  remaining activity at 1.25 µM: 100%
[2]; Well no.=4456, high concentration screen
  remaining activity at 3.75 µM: 99.7%

## CC(C)(C)c1[nH]cnc1/C=c1\[nH]c(=O)/c(=C/c2ccccc2)[nH]c1=O [Plinabulin (NPI-2358)]
[1]; Well no.=4834, low concentration screen
  remaining activity at 1.25 µM: 99%
[2]; Well no.=4834, high concentration screen
  remaining activity at 3.75 µM: 102%

## CC1(C)CC(O)CC(C)(C)N1[O] [TEMPOL]
[1]
  remaining activity at 1.25 µM: 93.1%
[2]
  remaining activity at 3.75 µM: 95.9%

## CCc1cc(Cl)c(OC)c(C(=O)NC[C@@H]2CCN(CC)C2)c1O [S-(-)-Eticlopride hydrochloride]
[1]; Well no.=417, low concentration screen
  remaining activity at 1.25 µM: 102%
[2]; Well no.=417, high concentration screen
  remaining activity at 3.75 µM: 101%

## COc1cc(N)cn[n+]1-c1ccccc1 [Amezinium (methylsulfate)]
[1]; Well no.=6567, low concentration screen
  remaining activity at 1.25 µM: 106%
[2]; Well no.=6567, high concentration screen
  remaining activity at 3.75 µM: 104%

## NS(=O)(=O)c1ccc2c(c1)C1C=CCC1C(c1ccc(Br)cc1)N2 (stereo not shown) [4BP-TQS]
[1]; Well no.=5971, low concentration screen
  remaining activity at 1.25 µM: 105%
[2]; Well no.=5971, high concentration screen
  remaining activity at 3.75 µM: 105%

## C[C@H](CS)C(=O)N1CCC[C@H]1C(=O)O [Captopril]
[1]; Well no.=318, low concentration screen
  remaining activity at 1.25 µM: 93.1%
[1]; Well no.=1915, low concentration screen
  remaining activity at 1.25 µM: 97.2%
[1]; Well no.=4135, low concentration screen
  remaining activity at 1.25 µM: 101%
[1]; Well no.=7412, low concentration screen
  remaining activity at 1.25 µM: 105%
[2]; Well no.=318, high concentration screen
  remaining activity at 3.75 µM: 97%
[2]; Well no.=1915, high concentration screen
  remaining activity at 3.75 µM: 100%
[2]; Well no.=4135, high concentration screen
  remaining activity at 3.75 µM: 98%
[2]; Well no.=7412, high concentration screen
  remaining activity at 3.75 µM: 106%

## Cc1nc2n(c(=O)c1CCN1CCC(c3noc4cc(F)ccc34)CC1)CCCC2 [Risperidone]
[1]; Well no.=1306, low concentration screen
  remaining activity at 1.25 µM: 103%
[1]; Well no.=1606, low concentration screen
  remaining activity at 1.25 µM: 100%
[2]; Well no.=1306, high concentration screen
  remaining activity at 3.75 µM: 103%
[2]; Well no.=1606, high concentration screen
  remaining activity at 3.75 µM: 102%

## COc1nc(OCc2cccc(-c3ccccc3)c2C)ccc1CNCCNC(C)=O [BMS-202]
[1]; Well no.=8469, low concentration screen
  remaining activity at 1.25 µM: 100%
[1]; Well no.=8694, low concentration screen
  remaining activity at 1.25 µM: 96.5%
[2]; Well no.=8469, high concentration screen
  remaining activity at 3.75 µM: 95.5%
[2]; Well no.=8694, high concentration screen
  remaining activity at 3.75 µM: 93.7%

## N#CC(C#N)=C(N)/C(C#N)=C/c1ccc(O)cc1 [AG 112]
[1]; Well no.=2609, low concentration screen
  remaining activity at 1.25 µM: 97%
[2]; Well no.=2609, high concentration screen
  remaining activity at 3.75 µM: 91.5%

## C[C@H](CCC(=O)NCCS(=O)(=O)O)[C@H]1CC[C@H]2[C@@H]3[C@@H](O)C[C@@H]4C[C@H](O)CC[C@]4(C)[C@H]3CC[C@]12C [Tauroursodeoxycholic Acid (TUDCA)]
[1]; Well no.=8200, low concentration screen
  remaining activity at 1.25 µM: 109%
[2]; Well no.=8200, high concentration screen
  remaining activity at 3.75 µM: 107%

## NS(=O)(=O)c1cccc2c1c([N+](=O)[O-])cc1nc(O)c(O)nc12 [NBQX disodium]
[1]; Well no.=942, low concentration screen
  remaining activity at 1.25 µM: 101%
[2]; Well no.=942, high concentration screen
  remaining activity at 3.75 µM: 98%

## CN(C)CCC(c1ccccc1)c1ccccn1 (stereo not shown) [Pheniramine (Maleate)]
[1]; Well no.=6799, low concentration screen
  remaining activity at 1.25 µM: 99.4%
[2]; Well no.=6799, high concentration screen
  remaining activity at 3.75 µM: 90%

## Nc1ccn([C@H]2C[C@H](O)[C@@H](CO)O2)c(=O)n1 [2'-Deoxycytidine]
[1]; Well no.=7451, low concentration screen
  remaining activity at 1.25 µM: 93.9%
[1]; Well no.=7760, low concentration screen
  remaining activity at 1.25 µM: 96.4%
[2]; Well no.=7451, high concentration screen
  remaining activity at 3.75 µM: 93.7%
[2]; Well no.=7760, high concentration screen
  remaining activity at 3.75 µM: 98.4%

## Nc1cccc2c1CN(C1CCC(=O)NC1=O)C2=O (stereo not shown) [Lenalidomide (Revlimid)]
[1]; Well no.=4838, low concentration screen
  remaining activity at 1.25 µM: 97.7%
[2]; Well no.=4838, high concentration screen
  remaining activity at 3.75 µM: 97.8%

## OC[C@H]1O[C@@H](n2cnc3c(=S)nc[nH]c32)[C@H](O)[C@@H]1O [6-_Thioinosine]
[1]; Well no.=7724, low concentration screen
  remaining activity at 1.25 µM: 99.8%
[2]; Well no.=7724, high concentration screen
  remaining activity at 3.75 µM: 96.5%

## CCCCc1nc(C)c(CC(=S)N(C)C)c(=O)n1Cc1ccc(-c2ccccc2-c2nnn[nH]2)cc1 [Fimasartan]
[1]; Well no.=6183, low concentration screen
  remaining activity at 1.25 µM: 107%
[2]; Well no.=6183, high concentration screen
  remaining activity at 3.75 µM: 103%

## CNCc1cc(-c2ccccc2F)n(S(=O)(=O)c2cccnc2)c1 [TAK-438]
[1]; Well no.=4794, low concentration screen
  remaining activity at 1.25 µM: 91.8%
[2]; Well no.=4794, high concentration screen
  remaining activity at 3.75 µM: 93%

## O=C(O)C(O)Cc1ccc(O)c(O)c1 (stereo not shown) [Sodium Danshensu]
[1]; Well no.=4868, low concentration screen
  remaining activity at 1.25 µM: 100%
[2]; Well no.=4868, high concentration screen
  remaining activity at 3.75 µM: 100%

## O=C(c1ccccc1)c1ccc(N2CCOCC2)cc1O [DNA-PK Inhibitor V]
[1]; Well no.=2657, low concentration screen
  remaining activity at 1.25 µM: 95.5%
[2]; Well no.=2657, high concentration screen
  remaining activity at 3.75 µM: 101%

## CC1=C2C(=CO[C@H](C)[C@H]2C)C(O)=C(C(=O)O)C1=O [Citrinin]
[1]; Well no.=3171, low concentration screen
  remaining activity at 1.25 µM: 101%
[2]; Well no.=3171, high concentration screen
  remaining activity at 3.75 µM: 107%
